Holding throughout (assay): microbe, parasite or virus in culture
Format in all cases: cell-based, HIV-1

Assay [1] deals with T332S/V362I/Pr R41G virus. Conditions: Human immunodeficiency virus 1, MT2, read-out: T332S/V362I/pr41G EC50. The protocol: (§1) Cells. MT-2 cells and 293T cells were obtained from the NIH AIDS Research and Reference Reagent Program. Cell lines were sub-cultured twice a week in either RPMI 1640 (MT-2) or DMEM (293T, HeLa) media supplemented with 10% heat inactivated fetal bovine serum (FBS), 100 units/mL of penicillin G and 100 μg/mL of streptomycin. The DMEM medium was additionally supplemented with 10 mM HEPES buffer, pH 7.55, 2 mM L-glutamine and 0.25 μg/mL of amphotericin B.
(§2) Viruses. NLRepRluc virus contains the Renilla luciferase marker in place of the viral nef gene. The proviral plasmid pNLRepRluc was constructed at Bristol-Myers Squibb, starting from a proviral NL4-3 clone (B subtype) that was obtained from the NIH AIDS Research and Reference Reagent Program. The parental recombinant wild type (WT) virus (NLRepRlucP373S) was derived from NLRepRluc and contains the additional substitution of P373 for serine in Gag (within the SP1 spacer), the most common 373 variation in subtype B. Other recombinant viruses (A364V, V370A/ΔT371 and the “T3325 triple” (T332S/V362I+HIV-1 protease R41G)) were generated by site-directed mutagenesis of plasmid pNLRepRlucP373S to introduce those amino acid substitutions in Gag and protease. Recombinant virus DNA was then used to generate virus stocks by transfection of 293T cells (Lipofectamine PLUS kit, Invitrogen). Titers of virus stocks were determined using a luciferase assay (Dual-Luciferase® Reporter Assay System, Promega, Milwaukee, Wis., USA) endpoint.
(§3) Multiple cycle drug susceptibility assay. Pellets of MT-2 cells were infected with NLRepRlucP373S Gag site-directed viruses, where initial inocula of the reporter strains were normalized using equivalent endpoint luciferase activity signals. Such cell-virus mixtures were resuspended in medium, incubated for 1-hour at 37° C./CO2, and added to compound containing 96-well plates at a final cell density of 10,000 cells per well. The test compounds were 3-fold serially diluted in 100% DMSO, and assayed at a final DMSO concentration of 1%. After 4-5 day incubation at 37° C./CO2, virus yields were determined by Renilla luciferase activity (Dual-Luciferase® Reporter Assay System, Promega). The endpoint luminescence was detected on a Wallac Trilux (PerkinElmer).
T332sN362I/Pr R41G (N14.3, B Clade) virus′ was obtained as follows: Selection for resistance of HIV-1 strain […] virus with the HIV maturation inhibitor (MI) compound
At passage 8 virus was harvested and sequenced.
(§4) All three recombinant viruses were used as described above in the HIV cell culture assay for the NL4-3 virus.

Assay [2] relates to NLRepRlucP373S recombinant wild type (WT) virus. The note with it: Human immunodeficiency virus 1, MT2, read-out: WT EC50. Here is the method: as §1, §2, §3
The 50% inhibitory concentrations (EC50S) were calculated by using the exponential form of the median effect equation where Percent Inhibition=1/[1+(EC50/drug conc.^m], where m is a parameter that reflects the slope of the concentration-response curve. Background was taken as the residual signal observed upon inhibition at the highest concentration of a control protease inhibitor, NFV (3 μM).
The 90% inhibitory concentrations (EC90S) were calculated by using the exponential form of the median effect equation where ECF=[(F/(100−F)]^1/H·EC50, where H is a parameter that reflects the slope of the concentration-response curve. Background was taken as the residual signal observed upon inhibition at the highest concentration of a control protease inhibitor, NFV (3 μM).

Assay [3] has as its system A364V site directed mutant virus. Conditions: Human immunodeficiency virus 1, MT2, read-out: A364V EC50. The protocol:
as §1, §2, §3
(§5) HIV-1 NL4-3 expressing Renilla luciferase gene was converted to the gag V370A/ΔT371 virus by site directed mutagenesis. A364V is a site directed mutant.
as §4

Assay [4] deals with gag V370A/ΔT371 virus. The note with it: Human immunodeficiency virus 1, MT2, read-out: V370A/ΔT371 EC50. The protocol:
as §1, §2, §3, §5, §4

Among the data in patent publication US10421774B2 (priority 2016, dated 2019) are EC50 values, retold here.

For the compound `C=C(C)[C@@H]1CC[C@]2(NCCN3CCS(=O)(=O)CC3)CC[C@]3(C)[C@H](CC[C@@H]4[C@@]5(C)CC=C(C6=CCC(COc7nnnn7C)(C(=O)O)CC6)C(C)(C)[C@@H]5CC[C@]43C)[C@@H]12` (some centres unmarked) [Example 13], the EC50 in assay [1] stood at 7 nM; in assay [2] it was 2 nM; in assay [3] it was 24 nM; in assay [4] it was 7 nM.
Take `C=C(C)[C@@H]1CC[C@]2(NC[C@H](O)C(=O)O)CC[C@]3(C)[C@H](CC[C@@H]4[C@@]5(C)CC=C(C6=CC[C@](COc7ncccc7C#N)(C(=O)O)CC6)C(C)(C)[C@@H]5CC[C@]43C)[C@@H]12` [Example A17, (R)-4-((1R,3aS,5aR,5bR,7aR,11aS,11bR,13aR,13bR)-3a-(((S)-2-carboxy-2-hydroxyethyl)amino)-5a,5b,8,8,11a-pentamethyl-1-(prop-1-en-2-yl)-2,3,3a,4,5,5a,5b,6,7,7a,8,11,11a,11b,12,13,13a,13b-octadecahydro-1H-cyclopenta[a]chrysen-9-yl)-1-(((3-cyanopyridin-2-yl)oxy)methyl)cyclohex-3-enecarboxylic acid]: the EC50 in assay [1] is 15 nM; in assay [2], 3 nM; in assay [3], 3000 nM; in assay [4] it was 15 nM.
As to `C=C(C)[C@@H]1CC[C@]2(NCCN3CCS(=O)(=O)CC3)CC[C@]3(C)[C@H](CC[C@@H]4[C@@]5(C)CC=C(C6=CCC(CCOc7nccc(C)n7)(C(=O)O)CC6)C(C)(C)[C@@H]5CC[C@]43C)[C@@H]12` (stereo partly drawn) [Example A26, 4-((1R,3aS,5aR,5bR,7aR,11aS,11bR,13aR,13bR)-3a-((2-(1,1-dioxidothiomorpholino)ethyl)amino)-5a,5b,8,8,11a-pentamethyl-1-(prop-1-en-2-yl)-2,3,3a,4,5,5a,5b,6,7,7a,8,11,11a,11b,12,13,13a,13b-octadecahydro-1H-cyclopenta[a]chrysen-9-yl)-1-(2-((4-methylpyrimidin-2-yl)oxy)ethyl)cyclohex-3-ene-1-carboxylic acid], the EC50 in assay [1] was greater than 50 nM; in assay [2], 5 nM; in assay [3] it was greater than 50 nM; in assay [4], greater than 50 nM.
For the compound `C=C(C)[C@@H]1CC[C@]2(NCCN3CCS(=O)(=O)CC3)CC[C@]3(C)[C@H](CC[C@@H]4[C@@]5(C)CC=C(C6=CCC(COc7ccccn7)(C(=O)O)CC6)C(C)(C)[C@@H]5CC[C@]43C)[C@@H]12` (some centres unmarked) [Example 1], the EC50 in assay [1] is 14 nM; in assay [2], 3 nM; in assay [3], 11 nM; in assay [4], 17 nM.
The matching figures for `C=C(C)[C@@H]1CC[C@]2(NCCN3CCS(=O)(=O)CC3)CC[C@]3(C)[C@H](CC[C@@H]4[C@@]5(C)CC=C(C6=CCC(COc7cnnn7C(C)C)(C(=O)O)CC6)C(C)(C)[C@@H]5CC[C@]43C)[C@@H]12` (stereo partly drawn) [Example 17, 4-((1R,3aS,5aR,5bR,7aR,11aS,11bR,13aR,13bR)-3a-((2-(1,1-dioxidothiomorpholino)ethyl)amino)-5a,5b,8,8,11a-pentamethyl-1-(prop-1-en-2-yl)-2,3,3a,4,5,5a,5b,6,7,7a,8,11,11a,11b,12,13,13a,13b-octadecahydro-1H-cyclopenta[a]chrysen-9-yl)-1-(((1-isopropyl-1H-1,2,3-triazol-5-yl)oxy)methyl)cyclohex-3-ene-1-carboxylic acid]: 15 nM, 3 nM, greater than 50 nM and 15 nM.
For `C=C(C)[C@@H]1CC[C@]2(NCCN3CCC(S(C)(=O)=O)CC3)CC[C@]3(C)[C@H](CC[C@@H]4[C@@]5(C)CC=C(C6=CCC(COc7cccnc7)(C(=O)O)CC6)C(C)(C)[C@@H]5CC[C@]43C)[C@@H]12` (stereo partly drawn) [Example 11, 4-((1R,3aS,5aR,5bR,7aR,11aS,11bR,13aR,13bR)-5a,5b,8,8,11a-pentamethyl-3a-((2-(4-(methylsulfonyl)piperidin-1-yl)ethyl)amino)-1-(prop-1-en-2-yl)-2,3,3a,4,5,5a,5b,6,7,7a,8,11,11a,11b,12,13,13a,13b-octadecahydro-1H-cyclopenta[a]chrysen-9-yl)-1-((pyridin-3-yloxy)methyl)cyclohex-3-enecarboxylic acid], the EC50 came out at 8 nM in assay [1], 2 nM in assay [2] and 18 nM in assay [3].
On the same counts, the results for `C=C(C)[C@@H]1CC[C@]2(NCCN3CCS(=O)(=O)CC3)CC[C@]3(C)[C@H](CC[C@@H]4[C@@]5(C)CC=C(C6=CCC(COc7cc(C(F)(F)F)n(C)n7)(C(=O)O)CC6)C(C)(C)[C@@H]5CC[C@]43C)[C@@H]12` (some centres unmarked) [Example 3] are 2170 nM, 9 nM and 2220 nM.
The matching figures for `C=C(C)[C@@H]1CC[C@]2(NCCN3CCS(=O)(=O)CC3)CC[C@]3(C)[C@H](CC[C@@H]4[C@@]5(C)CC=C(C6=CCC(COc7cc(-c8ccccc8)nn7C)(C(=O)O)CC6)C(C)(C)[C@@H]5CC[C@]43C)[C@@H]12` (stereo partly drawn) [Example 2, 4-((1R,3aS,5aR,5bR,7aR,11aS,11bR,13aR,13bR)-3a-((2-(1,1-dioxidothiomorpholino)ethyl)amino)-5a,5b,8,8,11a-pentamethyl-1-(prop-1-en-2-yl)-2,3,3a,4,5,5a,5b,6,7,7a,8,11,11a,11b,12,13,13a,13b-octadecahydro-1H-cyclopenta[a]chrysen-9-yl)-1-(((1-methyl-3-phenyl-1H-pyrazol-5-yl)oxy)methyl)cyclohex-3-ene-1-carboxylic acid]: 3000 nM, 3000 nM and 1940 nM.
On the same counts, the results for `C=C(C)[C@@H]1CC[C@]2(NCCN3CCS(=O)(=O)CC3)CC[C@]3(C)[C@H](CC[C@@H]4[C@@]5(C)CC=C(C6=CCC(COc7cccnc7)(C(=O)O)CC6)C(C)(C)[C@@H]5CC[C@]43C)[C@@H]12` (stereo partly drawn) [Example 10, 4-((1R,3aS,5aR,5bR,7aR,11aS,11bR,13aR,13bR)-3a-((2-(1,1-dioxidothiomorpholino)ethyl)amino)-5a,5b,8,8,11a-pentamethyl-1-(prop-1-en-2-yl)-2,3,3a,4,5,5a,5b,6,7,7a,8,11,11a,11b,12,13,13a,13b-octadecahydro-1H-cyclopenta[a]chrysen-9-yl)-1-((pyridin-3-yloxy)methyl)cyclohex-3-enecarboxylic acid] are 6 nM, 2 nM and 27 nM.
In the case of `C=C(C)[C@@H]1CC[C@]2(NCCN3CCS(=O)(=O)CC3)CC[C@]3(C)[C@H](CC[C@@H]4[C@@]5(C)CC=C(C6=CCC(COc7ccncc7)(C(=O)O)CC6)C(C)(C)[C@@H]5CC[C@]43C)[C@@H]12` (stereo partly drawn) [Example 9, 4-((1R,3aS,5aR,5bR,7aR,11aS,11bR,13aR,13bR)-3a-((2-(1,1-dioxidothiomorpholino)ethyl)amino)-5a,5b,8,8,11a-pentamethyl-1-(prop-1-en-2-yl)-2,3,3a,4,5,5a,5b,6,7,7a,8,11,11a,11b,12,13,13a,13b-octadecahydro-1H-cyclopenta[a]chrysen-9-yl)-1-((pyridin-4-yloxy)methyl)cyclohex-3-ene-1-carboxylic acid], the EC50 in assay [1] was determined as 14 nM; in assay [2] it was 2 nM; in assay [3], 35 nM.
